From US20150290226A1, “NOVEL LYOPHILIZED COMPOSITIONS OF CYCLOPHOSPHAMIDE” (LEIUTIS PHARMACEUTICALS PVT. LTD., priority 2012, published 2015)
“And” between values parts separate entries of the source, which are not always exact repeats. Equal values may be shown once. Read-outs that look alike come from different tables or passages of the source.

Experiments:
[1] = Water activity of drug substance and lyophilizate; type: physicochemical; settings: Sample numbers I, II, III, listed as Drug substance (Monohydrate Form)
Description: (§1) The moisture content and water activity of the drug substance as well as the lyophilizate was checked to ensure the retention of the crystalline monohydrate form of the drug substance in the Lyophilizate. Water activity instruments measure the amount of free (sometimes referred to as unbound or active) water present in the sample and KF titration measures the total water in a sample.

[2] = Procedure: The solubility of Cyclophosphamide monohydrate in various solvents was checked. The quantity of solvent consumed for dissolving 100 mg of Cyclophosphamide monohydrate is given below: […]
[3] = Moisture content (KF titration) of drug substance and lyophilizate; type: physicochemical; settings: Sample numbers I, II, III, listed as Drug substance (Monohydrate Form)
Description: as §1

[4] = remark: listed apart in the source
Description: The change of description of Cyclophosphamide monohydrate at various temperatures was studied by exposing the drug to different temperatures under constant vacuum and details are given in Tables 6 & 7: […]

[5] = Vacuum 1000 mtorr, +25° C. (5 hrs)
[6] = Vacuum 1000 mtorr, −2° C. (12 hrs)
[7] = Vacuum 1000 mtorr, −15° C. (19 hrs)
[8] = Vacuum 1000 mtorr, −25° C. (12 hrs)
[9] = Vacuum 1000 mtorr, −40° C. (5 hrs)

Structure (SMILES): Cl.[O-][P+]1(N(CCCl)CCCl)NCCCO1 (stereo not drawn) [Cyclophosphamide monohydrate, 2-[bis(2-chloroethyl)amino]tetrahydro-2H-1,3,2-oxazaphosphorine 2-oxide monohydrate]
- Water Activity (aw) [1]: 0.374 and 0.372 and 0.373
- quantity of solvent consumed for dissolving 100 mg ([2]; Acetone): 0.4 mL
- quantity of solvent consumed for dissolving 100 mg ([2]; Acetonitrile): 0.5 mL
- quantity of solvent consumed for dissolving 100 mg ([2]; Dimethyacetamide): 2.0 mL
- quantity of solvent consumed for dissolving 100 mg ([2]; Ethanol): 0.5 mL
- quantity of solvent consumed for dissolving 100 mg ([2]; Tertiary butyl alcohol): 0.5 mL
- quantity of solvent consumed for dissolving 100 mg ([2]; Water): 2.45 mL
- Moisture Content (%) [3]: 6.64% and 6.75% and 6.72%
- % Moisture content ([4]; Initial): 6.87%
- Observation for Description ([4]; Initial): Powder
- % Moisture content [4, 5]: 2.94%
- Observation for Description [4, 5]: Liquid
- % Moisture content [4, 6]: 4.52%
- Observation for Description [4, 6]: Sticky
- % Moisture content [4, 7]: 6.29%
- Observation for Description [4, 7]: Powder
- % Moisture content [4, 8]: 6.27%
- Observation for Description [4, 8]: Powder
- % Moisture content [4, 9]: 6.23%
- Observation for Description [4, 9]: Powder
- Description ([4]; −10 °C, 350 mtorr and 6 hours): Powder
- Moisture Content (%) ([4]; −10 °C, 350 mtorr and 6 hours): 7.56%
- Description ([4]; −15 °C, 350 mtorr and 12 hours): Powder
- Moisture Content (%) ([4]; −15 °C, 350 mtorr and 12 hours): 6.99%
- Description ([4]; −25 °C, 150 mtorr and 6 hours): Powder
- Moisture Content (%) ([4]; −25 °C, 150 mtorr and 6 hours): 6.87%
- Description ([4]; −25 °C, 150 mtorr and 15 hours): Sticky Mass
- Moisture Content (%) ([4]; −25 °C, 150 mtorr and 15 hours): 4.55%
- Description ([4]; −25 °C, 280 mtorr and 12 hours): Powder
- Moisture Content (%) ([4]; −25 °C, 280 mtorr and 12 hours): 6.51%
